Laboratory results: US4159338A, “Antiinflammatory-4,5-dicyclic-2-(substituted thio)-imidazoles and their corresponding sulfoxides and sulfones” (E. I. Du Pont de Nemours and Company, priority 1978, dated 1979)
Read-outs that look alike come from different tables or passages of the source.

Assays:
[1] = tested on: adjuvant-induced arthritis in rats; test: Established Adjuvant-Induced Arthritis in Rats; format: in vivo, Charles River Lewis male rats; settings: for ED50: Rattus norvegicus, read-out: A. A. ED50%
[2] = tested on: phenylquinone-induced writhing in mice; test: Phenylquinone Writhing Test; format: in vivo, female white mice; settings: Mus musculus, 0.5 h, oral, at 1/2 hour
Description: A standard procedure for detecting and comparing the analgesic activity of compounds in this series for which there is good correlation with human efficacy is the standard phenylquinone writhing test modified from Siegmund, et al., Proc. Soc. Exp. Biol. Med. 95, 729 (1957). A test compound suspended in 1% methylcellulose was given orally to fasted (17-21 hours) female white mice, 5-20 animals per double blind test. Aqueous (0.01% phenyl-p-benzoquinone) phenylquinone was injected intraperitoneally at 24 minutes later using 0.20 ml per mouse. […] The effective analgesic dose for 50% of the mice (ED50) was calculated by the moving average method of Thompson, W. R., Bact. Rev. 11, 115-145 (1947); also time of peak action was determined for many of the compounds.

[3] = oral, 7 daily doses, established adjuvant arthritis rats
[4] = oral, 7 daily doses, established adjuvant arthritis rats, determined as % paw volume reduction from control

CC(=O)Oc1ccccc1C(=O)O [Aspirin, reference compound]
ED50 ([1]; po): 305 mg/kg

FC(F)C(F)(F)Sc1nc(-c2cccs2)c(-c2cccs2)[nH]1 [Example 1, 2-[(1,1,2,2-Tetrafluoroethyl)thio]-4,5-bis-(2-thienyl)-1H-imidazole]
ED50 [2]: 4.6 mg/kg
% paw volume reduction from control at 50 mg/kg [1, 3]: 32%

Fc1ccc(-c2nc(SC(F)(F)C(F)F)[nH]c2-c2cccs2)cc1 [Example 2, 4-(4-Fluorophenyl)-2-(1,1,2,2-tetrafluoroethylthio)-5-(2-thienyl)-1H-imidazole]
ED50 [1, 4]: 1.3 mg/kg

O=S(=O)(c1nc(-c2ccc(F)cc2)c(-c2cccs2)[nH]1)C(F)(F)C(F)F [Example 3, 4-(4-Fluorophenyl)-2-(1,1,2,2-tetrafluoroethylsulfonyl)-5-(2-thienyl)-1H-imidazole]
ED50 [2]: 2.1 mg/kg
ED50 [1, 4]: 0.1 mg/kg

FC(F)C(F)(F)Sc1nc(-c2ccc(Cl)cc2)c(-c2cccs2)[nH]1 [Example 4, 4-(4-Chlorophenyl)-2-(1,1,2,2-tetrafluoroethylthio)-5-(2-thienyl)-1H-imidazole]
ED50 [1, 4]: 12 mg/kg

O=S(=O)(c1nc(-c2cccs2)c(-c2cccs2)[nH]1)C(F)(F)C(F)F [Example 5, 2-(1,1,2,2-Tetrafluoroethylsulfonyl)-4,5-bis-(2-thienyl)-1H-imidazole]
ED50 [2]: < 130 mg/kg
ED50 [1, 4]: 2.2 mg/kg

FC(F)C(F)(F)Sc1nc(-c2ccc(Cl)c(Cl)c2)c(-c2cccs2)[nH]1 [Example 6, 4-(3,4-Dichlorophenyl)-2-(1,1,2,2-tetrafluoroethylthio)-5-(2-thienyl)-1H-imidazole]
ED50 [1, 4]: 50 mg/kg

COc1ccc(-c2nc(SC(F)(F)C(F)F)[nH]c2-c2cccs2)cc1 [Example 8, 4-(4-Methoxyphenyl)-2-(1,1,2,2-tetrafluoroethylthio)-5-(2-thienyl)-1H-imidazole]
ED50 [2]: 45 mg/kg
ED50 [1, 4]: 30 mg/kg

COc1ccc(-c2nc(S(=O)(=O)C(F)(F)C(F)F)[nH]c2-c2cccs2)cc1 [Example 9, 4-(4-Methoxyphenyl)-2-(1,1,2,2-tetrafluoroethylsulfonyl)-5-(2-thienyl)-1H-imidazole]
ED50 [2]: 1.67 mg/kg
ED50 [1, 4]: 5 mg/kg

FC(F)C(F)(F)Sc1nc(-c2ccco2)c(-c2ccco2)[nH]1 [Example 10, 4,5-bis-(2-Furyl)-2-(1,1,2,2-tetrafluoroethylthio)-1H-imidazole]
% paw volume reduction from control at 50 mg/kg [1, 3]: 34%

FC(F)C(F)(F)Sc1nc(-c2ccccc2)c(-c2cccnc2)[nH]1 [Example 11, 4-Phenyl-5-(3-pyridyl)-2-(1,1,2,2-tetrafluoroethylthio)-1H-imidazole]
ED50 [1, 4]: < 25 mg/kg

CC(C)Cc1ccc(C(C)C(=O)O)cc1 (stereo not shown) [Ibuprofen, reference compound]
ED50 [1, 4]: 100 mg/kg

COc1ccc2c(c1)c(CC(=O)O)c(C)n2C(=O)c1ccc(Cl)cc1 [Indomethacin, reference compound]
ED50 ([1]; po): 0.3 mg/kg

CCCCC1C(=O)N(c2ccccc2)N(c2ccccc2)C1=O [Phenylbutazone, reference compound]
ED50 [1, 4]: 10 mg/kg
